What was measured:
Experiment in all cases: relative viability (nuclei count vs DMSO), 5 days (fraction); higher = more cells survive
TGX 221 + Linsitinib = compound: CC1=CN2C(=O)C=C(N=C2C(=C1)C(C)NC3=CC=CC=C3)N4CCOCC4 [TGX 221] + C[C@]1(O)C[C@@H](c2nc(-c3ccc4ccc(-c5ccccc5)nc4c3)c3c(N)nccn32)C1 [Linsitinib] (partner 1 µM)
Summary of the method: (§1)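 Relative viability divides the nuclei count in treated wells by that in vehicle wells. Lung cancer cell lines were seeded in 1536-well plates, dosed by pin tool the next day, and fixed and stained after 5 days in one step with final 0.05% Triton X-100, 1% formaldehyde and 1 ug/ml Hoechst. Dosing was a single drug or a fixed anchor-drug dose plus five library-drug doses (not always all listed) in √10 steps, and values are medians of duplicate plates imaged at 4×.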

[1] = compound: O=C(CCCCCCNC(=O)c1cnc(N(c2ccccc2)c2ccccc2)nc1)NO [Ricolinostat] + CCNC(=O)c1noc(-c2cc(C(C)C)c(O)cc2O)c1-c1ccc(CN2CCOCC2)cc1 [Luminespib] (partner 0.01 µM)
Summary of the method: as §1

Ricolinostat + OSI-027 = compound: O=C(CCCCCCNC(=O)c1cnc(N(c2ccccc2)c2ccccc2)nc1)NO [Ricolinostat] + COc1cccc2cc(-c3nc([C@H]4CC[C@H](C(=O)O)CC4)n4ncnc(N)c34)[nH]c12 [OSI-027] (partner 0.5 µM)
Summary of the method: as §1

[2] = compound: O=C(CCCCCCNC(=O)c1cnc(N(c2ccccc2)c2ccccc2)nc1)NO [Ricolinostat] + Nc1nc2[nH]cc(CCc3ccc(C(=O)N[C@@H](CCC(=O)O)C(=O)O)cc3)c2c(=O)[nH]1 [Pemetrexed] (partner 0.2 µM)
Summary of the method: as §1

Cell Line	relative viability (TGX 221 + Linsitinib; first compound 0.08 µM)	relative viability (TGX 221 + Linsitinib; first compound 0.253 µM)	relative viability (TGX 221 + Linsitinib; first compound 0.8 µM)	relative viability (TGX 221 + Linsitinib; first compound 2.53 µM)	relative viability (TGX 221 + Linsitinib; first compound 8 µM)	relative viability ([1]; first compound 0.08 µM)	relative viability ([1]; first compound 0.253 µM)	relative viability ([1]; first compound 0.8 µM)	relative viability ([1]; first compound 2.53 µM)	relative viability (Ricolinostat + OSI-027; first compound 0.08 µM)	relative viability (Ricolinostat + OSI-027; first compound 0.253 µM)	relative viability (Ricolinostat + OSI-027; first compound 0.8 µM)	relative viability (Ricolinostat + OSI-027; first compound 2.53 µM)	relative viability ([2]; first compound 0.08 µM)	relative viability ([2]; first compound 0.253 µM)	relative viability ([2]; first compound 0.8 µM)	relative viability ([2]; first compound 2.53 µM)
NCI-H647	0.915	0.948	1	0.749	0.611	0.161	0.238	0.117	0.21	0.546	0.508	0.489	0.543	0.192	0.18	0.174	0.134
NCI-H650	0.732	0.885	0.779	0.772	0.713	0.763	0.758	0.788	0.657	0.405	0.585	0.503	0.374	0.643	0.912	0.861	0.734
NCI-H661	0.486	0.472	0.363	0.457	0.362	0.743	0.886	0.881	0.685	0.501	0.669	0.712	0.652	0.832	0.879	0.9	0.776
NCI-H838	0.917	0.819	0.841	0.836	0.618	0.254	0.291	0.289	0.169	0.302	0.383	0.457	0.519	0.236	0.273	0.259	0.208
NCI-H1355	0.743	0.666	0.621	0.453	0.546	0.645	0.764	0.753	0.712	0.296	0.477	0.404	0.299	0.916	1.07	0.95	1.01
NCI-H1395	1	0.865	1.04	0.598	0.665	–	0.792	0.859	0.528	–	0.651	0.613	0.663	–	0.801	0.804	0.746
NCI-H1437	0.973	0.958	1.04	0.936	0.629	0.984	1.08	1.12	0.92	0.729	0.864	0.774	0.502	0.329	0.32	0.276	0.263
NCI-H1563	1.2	1.2	0.909	0.868	0.755	0.553	0.502	0.508	0.525	0.759	0.731	0.774	0.62	0.788	0.767	0.74	0.726
NCI-H1651	0.851	0.67	0.723	0.726	0.533	0.712	0.891	0.852	0.914	0.607	0.651	0.603	0.618	0.463	0.571	0.55	0.552
NCI-H1666	0.635	0.597	0.676	0.59	0.526	0.969	1.04	0.976	0.836	0.716	0.884	0.845	0.691	0.805	0.841	0.867	0.871
NCI-H1734	0.801	0.747	0.802	0.647	0.616	0.197	0.19	0.185	0.178	0.473	0.673	0.632	0.617	0.446	0.414	0.448	0.473
NCI-H1755	0.956	0.935	0.835	0.629	0.557	0.489	0.528	0.442	0.752	0.538	0.791	0.717	0.62	0.405	0.386	0.343	0.418
NCI-H1793	0.768	0.616	0.531	0.467	0.474	–	0.15	0.171	0.145	–	0.252	0.284	0.221	0.603	0.76	0.815	0.811
NCI-H1915	1.02	1.12	1.16	1.11	1.04	0.71	0.79	0.784	0.669	0.525	0.65	0.623	0.421	0.399	0.416	0.458	0.397
NCI-H1944	1.07	1.03	1.04	0.921	0.669	0.663	0.686	0.629	0.57	0.321	0.405	0.34	0.292	0.565	0.588	0.565	0.39
NCI-H1975	0.843	0.778	0.902	0.943	0.697	0.243	0.227	0.186	0.179	0.638	0.84	0.76	0.599	0.329	0.279	0.277	0.269
